Test systems include SK-MEL-2 melanoma; RXF 393 renal; SN12C renal; T-47D breast; 786-0 renal; NCI-H226 lung; NCI-H460 lung; U251 CNS; HOP-62 NSCLC; K-562 leukemia.
Common to all, as to test: NCI anticancer screen, dose series, 48 h

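48-hour exposure; five concentrations; linearly interpolated endpoints. TGI: concentration producing complete growth inhibition.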

As to `O=c1c2cc([N+](=O)[O-])ccc2oc2nc3n(c(=O)c12)CCCS3`, the TGI with SK-MEL-2 melanoma, in the experiment on RXF 393 renal, in the experiment with SN12C renal, in the experiment with T-47D breast, in the experiment with 786-0 renal and in the experiment with NCI-H226 lung was more than 100 µM each time. In addition, the TGI in the experiment with NCI-H460 lung, with U251 CNS, with HOP-62 NSCLC and with K-562 leukemia was more than 100 µM throughout.
Take `CCC1([N+](=O)[O-])CN(N=O)C1`: the TGI with SK-MEL-2 melanoma, in the experiment on RXF 393 renal, in the experiment with SN12C renal, with T-47D breast, with 786-0 renal and with NCI-H226 lung was more than 100 µM in each case. For the same molecule, the TGI with NCI-H460 lung, in the experiment with U251 CNS, with HOP-62 NSCLC and in the experiment on K-562 leukemia was more than 100 µM in each case.
`Cc1c(C(=O)NNc2ccccc2)n2c(=S)[nH]nc2c2ccccc12`: the TGI in the experiment on SK-MEL-2 melanoma, with RXF 393 renal, in the experiment with SN12C renal, with T-47D breast, with 786-0 renal and with NCI-H226 lung was more than 100 µM in each case. For the same molecule, the TGI in the experiment with NCI-H460 lung, in the experiment on U251 CNS, in the experiment on HOP-62 NSCLC and in the experiment on K-562 leukemia was more than 100 µM throughout.
As to `C=C(C)[C@H]1CC23C(=O)[C@@](C)(C[C@H]2C1(C)C)C(=O)C(C(=O)C(C)C)=C3O`, the TGI in the experiment with SK-MEL-2 melanoma is 33.6 µM; in the experiment with RXF 393 renal, 29 µM; in the experiment with SN12C renal, 32.9 µM; in the experiment with T-47D breast, more than 100 µM; in the experiment with 786-0 renal, 35 µM; in the experiment with NCI-H226 lung it was 30.3 µM. The TGI with NCI-H460 lung came to 45.3 µM; with U251 CNS it was 39.7 µM; in the experiment on HOP-62 NSCLC it was 40.4 µM; with K-562 leukemia, 49.3 µM.
Regarding `CC1=C(C(=O)OCCO[N+](=O)[O-])C(c2ccccc2[N+](=O)[O-])C(C(=O)OC(C)C)=C(C)N1` (stereo not given), the TGI with SK-MEL-2 melanoma came out at 30.5 µM; with RXF 393 renal, 30.3 µM; in the experiment with SN12C renal, 34.9 µM; in the experiment on T-47D breast it was 46.8 µM; in the experiment on 786-0 renal, 41.4 µM; in the experiment on NCI-H226 lung it was 35 µM. Further, the TGI in the experiment on NCI-H460 lung was 34.2 µM; in the experiment with U251 CNS, 30 µM; in the experiment on HOP-62 NSCLC it was 33.8 µM; in the experiment with K-562 leukemia, more than 100 µM.
For the molecule `CN(C)/N=N/c1nc2c(c(=O)n(C)c(=O)n2C)n1CC1CO1` (stereo not given), the TGI in the experiment with SK-MEL-2 melanoma was 23.1 µM; in the experiment with RXF 393 renal, 15.8 µM; in the experiment on SN12C renal, 46.7 µM; with T-47D breast it was 80 µM; in the experiment with 786-0 renal it was 57.5 µM; in the experiment with NCI-H226 lung, 38.3 µM. The TGI is 21.7 µM with NCI-H460 lung, 35.2 µM in the experiment with U251 CNS, 34.4 µM in the experiment with HOP-62 NSCLC and 60.2 µM in the experiment on K-562 leukemia.
On to `O=C(NC(C(F)(F)F)(C(F)(F)F)P(=O)(Cc1ccccc1)Cc1ccccc1)C(C(F)(F)F)C(F)(F)F`, for which the TGI in the experiment on SK-MEL-2 melanoma came to 59.1 µM; with RXF 393 renal, 47.6 µM; in the experiment with SN12C renal, 38.4 µM; in the experiment with T-47D breast, 95.1 µM; in the experiment with 786-0 renal it was 34.4 µM; in the experiment with NCI-H226 lung, 32.4 µM. The TGI in the experiment with NCI-H460 lung is 78.3 µM; with U251 CNS, 41.5 µM; in the experiment on HOP-62 NSCLC, 41.6 µM; in the experiment with K-562 leukemia, more than 100 µM.
As to `O=C1CC[C@@]23CC(=O)O[C@@H]2CCCC3C1` (stereo not given in full), the TGI in the experiment on SK-MEL-2 melanoma, in the experiment with RXF 393 renal, with SN12C renal, with T-47D breast, in the experiment with 786-0 renal and in the experiment with NCI-H226 lung was more than 100 µM throughout. Further, the TGI in the experiment on NCI-H460 lung, in the experiment on U251 CNS, with HOP-62 NSCLC and with K-562 leukemia was more than 100 µM in each case.
As for `C=C1[C@@H]2CCC3[C@]4(C)C(CC[C@@]5(C)C(=O)O[C@H](O)[C@@H]45)[C@H](O)[C@]3(C2)[C@H]1OC1OC(CO)C(O)C(O)C1O` (stereo not given in full), the TGI with SK-MEL-2 melanoma, in the experiment with RXF 393 renal, in the experiment with SN12C renal, in the experiment on T-47D breast, in the experiment on 786-0 renal and with NCI-H226 lung was more than 50 µM in each case. The TGI in the experiment with NCI-H460 lung, in the experiment on U251 CNS, in the experiment on HOP-62 NSCLC and in the experiment with K-562 leukemia was more than 50 µM throughout.

(Values after PubChem BioAssay (NCI).)
